In patent US20250000881A1, “TREATMENT OF TREATMENT RESISTANT […] PSILOCYBIN” (COMPASS […], priority 2021, published 2025):
Values after ≈ are worked out from the molar mass of the structure shown. Values joined by “and” are separate entries in the source; they are usually repeats but may differ in a detail not shown here. Equal entries are not always repeated.

What was measured:
adult subjects with TRD [1] = assay: Phase 2b trial in TRD: Generalised Anxiety Disorder-7 item scale (GAD-7); format: in vivo, human; settings: 25 mg vs 1 mg group, week 3
Description: (§1) Other objectives were to evaluate the effects of psilocybin on quality of life and wellbeing, functioning and associated disability, cognitive function, and anxiety compared to 1 mg psilocybin on: • (a) Quality of life in subject EuroQoL (EQ)-5 dimension-3 level scale (EQ-5D-3L) score change from Baseline to week 3. This will also be assessed at week 12. This assessment was not mandatory. • (b) Quality of life in caregiver EQ-5D-3L score change from Baseline to week 3. This was assessed at week 12. • (c) Functioning and associated disability in the Sheehan Disability Scale (SDS) score change from Baseline to week 3. This was also assessed at week 12. • (d) Cognitive function as measured by the Digit Symbol Substitution Test (DSST) score change from baseline to week 3. This was assessed at day 1 and week 12. • (e) Level of anxiety as measured using the change in Generalised Anxiety Disorder 7 item Scale (GAD-7) total score change from baseline to week 3. This was assessed at week 12. • (f) Subject determined level of depression as measured using the change in Quick Inventory of Depressive Symptomatology Self-Rated (QIDS-SR-16) total score from Baseline to week 3. […] This was assessed at week 12. • (h) To evaluate the impact of different psilocybin doses on real life functional activity estimated from passive data streams collected on a mobile app on subjects' mobile phones. […]

adult subjects with TRD [2] = assay: Phase 2b trial in TRD: EQ-5D-3L and EuroQoL Visual Analogue Scale quality of life; format: in vivo, human; settings: 25 mg vs 1 mg, week 3
Description: as §1

[3] = test system: participants with TRD from Example 2; assay: Long term follow-up study: time to any depressive event (KM quartiles); format: in vivo, human
Description: The following example is a long term follow up of study of a sustained responder population from Example 2. 58 participants from Example 2 were selected for a long term 52 week follow up study. Of the 58 patients, 22 received a 25 mg dose of psilocybin, 19 received a 10 mg dose of psilocybin, and 17 received a 1 mg dose of psilocybin. […] None of the patients in this study received treatment for depression before their week 12 MADRS visit in Example 2. Patients were analyzed for a change in MADRS total score from Baseline to 12, 16, 20, 24, 28, 40, and 52 weeks.
The primary endpoint of this study was to determine the median time to a depressive event after administration of psilocybin. The depressive event includes: • Initiation of new antidepressant treatment (first new antidepressant treatment in time period only); • Hospitalization due to depression/suicidality; • Suicide attempt, prevention of an imminent suicide attempt, or completed suicide; • Increased suicidality measured by worsening on MADRS item 10; • Active suicidal ideation measured by the C-SSRS; • MADRS worsening; and • Discontinuation for adverse event or lack of efficacy.

adult subjects with TRD [4] = assay: Phase 2b trial in TRD: QIDS-SR-16 self-reported depression; format: in vivo, human; settings: 25 mg vs 1 mg group, week 3
Description: as §1

adult subjects with TRD [5] = assay: Phase 2b trial in TRD: Work and Social Adjustment Scale (WSAS); format: in vivo, human; settings: 25 mg vs 1 mg, week 3
Description: as §1

adult subjects with TRD [6] = assay: Phase 2b trial in TRD: Digit Symbol Substitution Test (DSST); format: in vivo, human; settings: 25 mg vs 1 mg groups, week 3
Description: as §1

CN(C)CCc1c[nH]c2cccc(OP(=O)(O)O)c12 [COMP360, psilocybin]
GAD-7 total score, least squares mean (95% confidence intervals) treatment difference (adult subjects with TRD [1]): −1.79 (−3.35, −0.23)
EQ-5D-3L total score, least squares mean treatment difference (adult subjects with TRD [2]): 0.06
EuroQoL Visual Analogue Scale treatment difference (adult subjects with TRD [2]): 6.77
Time to any depressive event, KM Q1, estimate (95% CI) ([3]; 1 mg (N = 17)): 6.0 (2.0, 14.0) days
Time to any depressive event, KM Q2 (median), estimate (95% CI) ([3]; 1 mg (N = 17)): 21 days and 21.0 (3.0, 78.0) days
Time to any depressive event, KM Q3, estimate (95% CI) ([3]; 1 mg (N = 17)): 78.0 (21.0, —) days
Time to any depressive event, KM Q1, estimate (95% CI) ([3]; 10 mg (N = 19)): 19.0 (2.0, 41.0) days
Time to any depressive event, KM Q2 (median), estimate (95% CI) ([3]; 10 mg (N = 19)): 43 days and 43.0 (19.0, 142.0) days
Time to any depressive event, KM Q1, estimate (95% CI) ([3]; 25 mg (N = 22)): 24.0 (2.0, 132.0) days
QIDS-SR-16 total score, least squares mean treatment difference (95% confidence intervals) (adult subjects with TRD [4]): −2.78 (−4.62, −0.95)
WSAS treatment difference (adult subjects with TRD [5]): −5.11
DSST least squares mean treatment difference (adult subjects with TRD [6]): 1.32
solubility (Solubility in water): ~15 mg/mL (≈ 52.8 mM)
